Patent US20220315554A1, “COMPOUNDS COMPRISING A […] LIGAND AND USE THEREOF” (priority 2019, published 2022)
Numbered stars: 1 amine (or outer) side, 2 acyl side, 3 side chain; on linkers, the order of the positions; unused ones are H or OH. Bridge positions count the residues as written; N and C are the ends. Square brackets hold non-standard residues; d marks the D form. Peptide text beside a SMILES is read from it. * marks the point of attachment. X3 = NC(=O)[C@H](CCCCNC(=O)CN1CCN(CC(=O)O)CCN(CC(=O)O)CCN(CC(=O)O)CC1)NC(=O)CCC(=O)NCCCOCCOCCOCCCN*; X52 = NCCOCCOCC(=O)N1CCN(Cc2cc(C[*:1])cc(C[*:2])c2)CC1; Phe(2-CF3) = N[C@@H](Cc1ccccc1C(F)(F)F)C(=O)O; Pyridine(3,5-bisCH2) = c1ncc(C[*:2])cc1C[*:1]; mXylylene = c1cc(C[*:1])cc(C[*:2])c1; Hexanoyl = CCCCCC(=O)*

Legend:
Human recombinant FAP = target: T1, Human recombinant FAP (Homo sapiens, UniProt Q12884); test: FRET-based FAP protease activity assay; format: biochemical; parameters: purchased R&D systems 3715-SE; details: pIC50 Category (Activity), FRET substrate, 37° C.
T1 sequence (Q12884 1-760): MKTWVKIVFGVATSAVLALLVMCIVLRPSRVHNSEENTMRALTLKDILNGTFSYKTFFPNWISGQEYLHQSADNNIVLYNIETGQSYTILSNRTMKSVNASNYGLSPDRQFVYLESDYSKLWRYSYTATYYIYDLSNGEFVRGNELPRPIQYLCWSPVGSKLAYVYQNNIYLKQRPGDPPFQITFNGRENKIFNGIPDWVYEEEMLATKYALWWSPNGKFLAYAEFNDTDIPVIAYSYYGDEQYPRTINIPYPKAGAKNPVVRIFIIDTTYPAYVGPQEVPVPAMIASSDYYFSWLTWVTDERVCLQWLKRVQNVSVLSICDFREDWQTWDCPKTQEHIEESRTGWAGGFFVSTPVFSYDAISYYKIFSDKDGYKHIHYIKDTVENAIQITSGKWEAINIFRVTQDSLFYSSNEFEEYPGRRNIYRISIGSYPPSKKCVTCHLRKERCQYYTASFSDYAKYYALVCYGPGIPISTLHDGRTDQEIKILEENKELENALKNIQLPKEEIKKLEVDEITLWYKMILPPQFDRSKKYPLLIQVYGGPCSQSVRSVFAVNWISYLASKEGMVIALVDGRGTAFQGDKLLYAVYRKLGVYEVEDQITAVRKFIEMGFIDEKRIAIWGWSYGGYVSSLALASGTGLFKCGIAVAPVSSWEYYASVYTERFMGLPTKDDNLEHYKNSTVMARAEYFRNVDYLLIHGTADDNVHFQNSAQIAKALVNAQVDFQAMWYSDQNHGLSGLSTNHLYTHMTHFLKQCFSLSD

[1] = target: T2, FAP-expressing human WI-38 fibroblasts (Homo sapiens, UniProt Q12884); test: Competitive FACS binding assay; details: pIC50 Category (FACS), competition with 3 nM Cy5-labeled compound, 4° C., 1 hour
T2 construct: FAP-expressing human WI-38 fibroblasts (ECACC) were cultured in EMEM; host or cells: WI-38 human fibroblasts
T2 sequence (Q12884 1-760): T1 sequence (Q12884 1-760)
Procedure: Cells were analyzed in an Attune NxT flow cytometer. […]

Compound	IC50 (Human recombinant FAP; recombinant human FAP) [nM]	IC50 ([1]; WI-38 fibroblasts) [nM]	IC50 (Human recombinant FAP) [nM]	IC50 [1] [nM]
CCCCCC[C@H](NC(=O)CCC(=O)NCCCOCCOCCOCCCNC(=O)CN1CCN(CC(=O)O)CCN(CC(=O)O)CCN(CC(=O)O)CC1)C(=O)N[C@H]1CSCc2cccc(c2)CSC[C@@H](C(=O)NCCC(=O)O)NC(=O)[C@H](Cc2ccccc2)NC(=O)[C@H](CCC(N)=O)NC(=O)[C@H]([C@@H](C)O)NC(=O)[C@@H]2CCCN2C(=O)[C@@H]2CCCN2C1=O [3BP-3400, DOTA-Ttds-Hgl-[Cys(3MeBn)-Pro-Pro-Thr-Gln-Phe-Cys]-Bal-OH]	10 to 79.4	> 1000	–	–
CCCCCC(=O)N[C@H]1CSCc2cncc(c2)CSC[C@@H](C(=O)N[C@@H](CC(=O)O)C(N)=O)NC(=O)[C@H](Cc2ccccc2)NC(=O)[C@H](CCC(N)=O)NC(=O)[C@H]([C@@H](C)O)NC(=O)[C@@H]2CCCN2C(=O)[C@@H]2CCCN2C1=O [3BP-3519, Hex-[Cys(3Lut)-Pro-Pro-Thr-Gln-Phe-Cys]-Asp-NH2] (Hexanoyl-CPPTQFCD-NH2; linker 1-7 via Pyridine(3,5-bisCH2))	< 10	< 10	–	–
CCCCCC(=O)N[C@H]1CSCc2cc(CSCCNC(=O)c3ccc(NN)nc3)cc(c2)CSC[C@@H](C(=O)O)NC(=O)[C@H](Cc2ccccc2)NC(=O)[C@H](CCC(N)=O)NC(=O)[C@H]([C@@H](C)O)NC(=O)[C@@H]2CCCN2C(=O)[C@@H]2CCCN2C1=O [3BP-4342, Hex-[Cys-(tMeBn(H-HYNIC-AET))-Pro-Pro-Thr-Gln-Phe-Cys]-OH]	–	–	< 10	10 to 79.4
CCCCCC(=O)N[C@H]1CSCc2cccc(c2)CSC[C@@H](C(=O)N[C@@H](CC(=O)O)C(N)=O)NC(=O)[C@H](Cc2ccccc2C(F)(F)F)NC(=O)[C@H](CCC(N)=O)NC(=O)[C@H]([C@@H](C)O)NC(=O)[C@@H]2CCCN2C(=O)[C@@H]2CCCN2C1=O [3BP-3409, Hex-[Cys(3MeBn)-Pro-Pro-Thr-Gln-Otf-Cys]-NH2] (Hexanoyl-CPPTQ[Phe(2-CF3)]CD-NH2; linker 1-7 via mXylylene)	< 10	10 to 79.4	–	–
CSCC[C@H](NC(C)=O)C(=O)N[C@H]1CSCc2cccc(c2)CSC[C@@H](C(=O)N[C@@H](CC(=O)O)C(=O)N[C@@H](Cc2c[nH]cn2)C(=O)N[C@@H](Cc2ccccc2)C(=O)N[C@@H](CCCNC(=N)N)C(=O)N[C@@H](C)C(N)=O)NC(=O)[C@H](Cc2ccccc2)NC(=O)[C@H](CCC(=O)O)NC(=O)[C@H]([C@@H](C)O)NC(=O)[C@@H]2CCCN2C(=O)[C@@H]2CCCN2C1=O [3BP-3198, Ac-Met-[Cys(3MeBn)-Pro-Pro-Thr-Glu-Phe-Cys]-Asp-His-Phe-Arg-Ala-NH2] (Ac-MCPPTEFCDHFRA-NH2; linker 2-8 via mXylylene)	< 10	< 10	–	–
CCCCCC(=O)N[C@H]1CSCc2cc(cc(CN3CCN(C(=O)COCCOCCNC(=O)C(CNCCN)CNCCN)CC3)c2)CSC[C@@H](C(=O)O)NC(=O)[C@H](Cc2ccccc2)NC(=O)[C@H](CCC(N)=O)NC(=O)[C@H]([C@@H](C)O)NC(=O)[C@@H]2CCCN2C(=O)[C@@H]2CCCN2C1=O [3BP-4169, Hex-[Cys-(tMeBn(N4Ac-O2Oc-PP))-Pro-Pro-Thr-Gln-Phe-Cys]-OH]	–	–	< 10	10 to 79.4
CCCCCC(=O)N[C@H]1CSCc2cccc(c2)CSC[C@@H](C(=O)N[C@@H](CC(=O)O)C(=O)N[C@@H](Cc2c[nH]cn2)C(=O)N[C@H](Cc2ccccc2)C(=O)N[C@@H](CCCNC(=N)N)C(=O)NCCCOCCOCCOCCCNC(=O)CCC(=O)N[C@@H](CCCCNC(=O)CN2CCN(CC(=O)O)CCN(CC(=O)O)CCN(CC(=O)O)CC2)C(N)=O)NC(=O)[C@H](Cc2ccccc2)NC(=O)[C@H](CCC(=O)O)NC(=O)[C@H]([C@@H](C)O)NC(=O)[C@@H]2CCCN2C(=O)[C@@H]2CCCN2C1=O [3BP-3276, Hex-[Cys(3MeBn)-Pro-Pro-Thr-Glu-Phe-Cys]-Asp-His-phe-Arg-Ttds-Lys(DOTA)-NH2] (Hexanoyl-CPPTEFCDH[dF]R-X3; linker 1-7 via mXylylene)	< 10	< 10	–	–
CCCCCC(=O)N[C@H]1CSCc2cc(cc(CN3CCN(C(=O)COCCOCCN)CC3)c2)CSC[C@@H](C(=O)N[C@@H](CC(=O)O)C(N)=O)NC(=O)[C@H](Cc2ccccc2)NC(=O)[C@H](CCC(N)=O)NC(=O)[C@H]([C@@H](C)O)NC(=O)[C@@H]2CCCN2C(=O)[C@@H]2CCCN2C1=O [3BP-3967, Hex-[Cys-(tMeBn(H-O2Oc-PP))-Pro-Pro-Thr-Gln-Phe-Cys]-Asp-NH2] (Hexanoyl-CPPTQFCD-NH2; linker 1-7 via X52)	–	–	< 10	< 10
